From patent US20240166658A1, “PORPHYRIN DERIVATIVES AND USES THEREOF” (University of Tasmania, priority 2021, published 2024)

What was measured:
[1] = RGB response, low PFCA concentration
Excerpt: RGB response curves were established by combining solutions of host (12) (5.01×10^−6 M) with solutions of PFOA (0-16 ppm, 3.86×10^−5 M) in dichloromethane. […] Thus, when establishing a calibration curve, the relative proportion of free host to host−PFCA complex limiting the variability of colour response must be considered for the application.
In the “low” PFCA concentration experiment, the RGB response values had the greatest rate of change from 0-40 ppb PFOA and appeared to level out between 40-80 ppb PFOA. In that instance, the regression was fit for a host : guest ratio of 0-0.8. To probe the sensor's response to a mixture of PFCAs, samples containing combinations of PFHxA, PFHpA, and PFDA in dichloromethane (7-28 ppb) were prepared and the RGB responses were collected. The PFCA concentrations for the samples were predicted using the PFOA regression (y=0.0591 ln(x)+0.037, R^2=0.9771).
The RGB response values can differentiate between 0 and 1 ppb PFOA numerically on the regression, but to determine the visual detectability, the ΔE values can be calculated. […] Samples from 0-5 ppb PFOA gave a colour change that could be determined as different from the starting host solution (ΔE=4-8) (Table 11). […] Thus, a conservative visual limit of detection of 10 ppb PFCA may be considered for an untrained observer making threshold analysis.

[2] = UV-Vis host-guest titration, association constant; assay type: binding; conditions: host (9) in dichloromethane; triplicate, TBA salt and acid; Bindfit
Method: (§1) Path length of the quartz cell was 1 cm. For UV-vis titrations, a stock solution of host was prepared (2.2×10^−3 M) in dichloromethane (DCM) and serially diluted to the required concentrations. Working solutions of tetrabutylammonium (TBA) anion salts or guest molecules were prepared in the same manner Host−guest titrations used solutions of guest prepared in the working concentration of host solution, according to the procedure of Thordarson, 2011.
(§2) UV-vis spectroscopic host−guest titrations were performed in accordance with the methodologies of Thordarson, 2011. Solutions of host in dichloromethane were prepared. Solutions of guest were then prepared in the host solution. Aliquots of guest in host solution were added to host solution and sequentially analysed until a known molar equivalent of guest was added. The amount of guest added per aliquot was ascertained by a preliminary screening experiment; strong association constants required smaller molar equivalents so more information could be collected. By way of example, host (9) responded to 0.1 molar equivalent of PFBA strongly, so an addition of 1 molar equivalent of PFBA would result in a loss of information. The inverse is true for weaker binding interactions. […]
(§3) A host solution of host (9) in dichloromethane was monitored using UV-Vis analysis as 0.5-10 equivalents of each PFAS was added. […]

[3] = UV-Vis host-guest titration, association constant; assay type: binding; conditions: host (9) in dichloromethane; triplicate, TBA salt and acid; Bindfit; remark: listed apart in the source
Method: as §1, §2, §3

[4] = UV-Vis host-guest titration, association constant; assay type: binding; conditions: host (9) in dichloromethane; triplicate, TBA salt and acid; Bindfit; remark: listed apart in the source
Method: as §1, §2, §3

[5] = Anion selectivity screening with TBA salts, UV-Vis; assay type: binding; conditions: dichloromethane
Method: The selectivity of the host (9) for anions was investigated visually and spectroscopically. The TBA salts of anions commonly found in significant concentrations in water samples were added in 10 molar equivalents to solutions of host to give preliminary indications of host−guest interactions prior to more extensive investigation. Although not an accurate proxy of real-world matrix concentrations, it was thought that the binding of any anions would indicate any affinity for other anions.

[6] = Preliminary binding study, colour change
Excerpt: Preliminary binding studies were undertaken by combining an amide linked porphyrin host molecule (9) and tetrabutylammonium perfluorooctanoate (TBAPFO) in dichloromethane.

Soil tests = conditions: 5 g dried soil, 20 mL host in dichloromethane, no pre-treatment or pre-concentration
Method: Soil was taken front the top 15 cm of the garden bed outside the Chemistry Building at the University of Tasmania and dried in the oven at 40° C. for approximately 60 hours. This soil was then spiked with 10 ppm PFOA: Two 50 g dried soil samples were transferred into two separate 1 L polypropylene containers. One sample was combined with a dichloromethane-PFOA solution (200 mL of 6×10^−6 M PFOA in DCM) and the other was combined with only dichloromethane (200 mL). The solutions were left to evaporate. 5 g of the resulting samples was transferred to high density polyethylene tubes.
Combinations of sensor molecule (9) in different organic solvents were added to spiked and control samples, and the results were compared. Water was also added to see if a biphasic system was beneficial for extraction from soil. • A=20 mL dichloromethane+medium chain sensor (9) • B=10 mL of water-->20 mL dichloromethane+medium chain sensor (9) • C=20 mL ethyl acetate+medium chain sensor (9) • D=20 mL toluene+medium chain sensor (9)
Dried soil samples (5 g) were also combined with 20 mL of host (9) in dichloromethane and shaken to show a colour change observable in the solvent.

Structure (SMILES) | ΔE vs host solution ([1]; 1.3 ppb PFOA) | conservative visual limit of detection ([1]; PFCA, untrained observer, threshold analysis) | ΔE (Host − PFCA) ([1]; PFOA 1 ppb) | ΔE (Host − PFCA) ([1]; PFOA 3 ppb) | ΔE (Host − PFCA) ([1]; PFOA 5 ppb) | ΔE (Host − PFCA) ([1]; PFOA 10 ppb) | ΔE (Host − PFCA) ([1]; PFOA 21 ppb) | ΔE (Host − PFCA) ([1]; PFOA 41 ppb) | ΔE (Host − PFCA) ([1]; PFOA 83 ppb) | ΔE vs starting host solution ([1]; samples from 0-5 ppb PFOA) | K value (averaged association constant Ka) [2] | K value (averaged association constant Ka) [3] | K value (averaged association constant Ka) [4] | shift in the Q band ([5]; 10 molar equivalents of TBA salt) | UV-Vis change after addition of anion ([5]; 10 molar equivalents of TBA salts) | colour change of host solution ([6]; addition of solid TBAPFO to red-brown host solution in dichloromethane) | colour change of host solution, biphasic ([6]; host in dichloromethane (0.0124 mmol, 5 mL) and TBAPFO 3 ppm in water (500 mL)) | colour change with soil sample (Soil tests)
O=C(Nc1ccccc1-c1c2nc(c(-c3ccccc3NC(=O)C(F)(F)C(F)(F)C(F)(F)C(F)(F)C(F)(F)C(F)(F)C(F)(F)C(F)(F)C(F)(F)C(F)(F)C(F)(F)F)c3ccc([nH]3)c(-c3ccccc3NC(=O)C(F)(F)C(F)(F)C(F)(F)C(F)(F)C(F)(F)C(F)(F)C(F)(F)C(F)(F)C(F)(F)C(F)(F)C(F)(F)F)c3nc(c(-c4ccccc4NC(=O)C(F)(F)C(F)(F)C(F)(F)C(F)(F)C(F)(F)C(F)(F)C(F)(F)C(F)(F)C(F)(F)C(F)(F)C(F)(F)F)c4ccc1[nH]4)C=C3)C=C2)C(F)(F)C(F)(F)C(F)(F)C(F)(F)C(F)(F)C(F)(F)C(F)(F)C(F)(F)C(F)(F)C(F)(F)C(F)(F)F [host (12), α,α,α,α-5,10,15,20-tetrakis(2-(tricosafluorododecanoylamino)phenyl) porphyrin] | ≥ 2 | 10 ppb | 4 | 6 | 8 | 11 | 12 | 15 | 17 | 4-8 | – | – | – | – | – | – | – | –
O=C(Nc1ccccc1-c1c2nc(c(-c3ccccc3NC(=O)C(F)(F)C(F)(F)C(F)(F)C(F)(F)C(F)(F)C(F)(F)C(F)(F)F)c3ccc([nH]3)c(-c3ccccc3NC(=O)C(F)(F)C(F)(F)C(F)(F)C(F)(F)C(F)(F)C(F)(F)C(F)(F)F)c3nc(c(-c4ccccc4NC(=O)C(F)(F)C(F)(F)C(F)(F)C(F)(F)C(F)(F)C(F)(F)C(F)(F)F)c4ccc1[nH]4)C=C3)C=C2)C(F)(F)C(F)(F)C(F)(F)C(F)(F)C(F)(F)C(F)(F)C(F)(F)F [host (9), α,α,α,α-5,10,15,20-tetrakis(2-(pentadecafluorooctanoylamino)phenyl)porphyrin] | – | – | – | – | – | – | – | – | – | – | 20459 | 58920 | 23968 | ~32 nm | no significant change | changed colour to green | colour change of the host solution could also be observed | discernible by the naked eye
